Experimental data: ChEMBL document CHEMBL1201862, “PubChem BioAssay data set” (2004)
Active and inactive are the calls of the source.

Experiments:
[1] = cytotoxicity in HEK-293T cells, dose response, cytotoxicity control for BCR NF-kB inhibitor project, luminescence, B-cell screen hits (AID 489021); type: functional, cell-based;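 also: HEK-293T cells carrying an NF-kB luciferase reporter; cells exposed to compound for about 14 hours before viability readout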
BJ [2] = assay: cytotoxicity toward BJ-TERT fibroblasts, dose response, cell-based, RAS-independent, luminescence (AID 1933); type: functional; conditions: Homo sapiens
[3] = cytotoxicity toward NIH3T3 fibroblasts, dose response, counter-screen, cell-based, ATP luminescence, mouse fibroblasts (AID 2010); type: functional;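 also: cells exposed to compound for about 90 hours before reading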
[4] = inhibitors of intracellular T. cruzi replication, confirmation, NIH3T3 host cells, beta-gal luminescence (AID 2044); type: functional, cell-based;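 also: intracellular parasites grown in NIH/3T3 mouse fibroblasts as host cells; luminescent beta-galactosidase reporter signal from transgenic T. cruzi replicating inside host cells; inhibitors lower the luminescence signal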
[5] = cytotoxicity toward DRD oncogenic fibroblasts, dose response, cell-based, non-viral oncogenic, luminescence (AID 1934); type: functional; conditions: Homo sapiens
BJ [6] = assay: cytotoxicity toward BJ-TERT-LT-ST fibroblasts, dose response, cell-based, RAS-independent, luminescence (AID 1935); type: functional; conditions: Homo sapiens;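 also: BJ fibroblasts immortalized with TERT plus LT and ST oncogenes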
BJ [7] = assay: cells; type: functional, cell-based; conditions: Homo sapiens
Protein RecA = biological target: T1, Protein RecA (Mycobacterium tuberculosis, UniProt P9WHJ3); assay: Fluorescence Cell-Free Homogeneous Dose Retest to Identify Inhibitors of RecA-Intein Splicing Activity. [Related pubchem assays (depositor defined):AID2097, AID2223, AID489010, AID492950]; type: functional
T1 sequence (P9WHJ3 whole entry): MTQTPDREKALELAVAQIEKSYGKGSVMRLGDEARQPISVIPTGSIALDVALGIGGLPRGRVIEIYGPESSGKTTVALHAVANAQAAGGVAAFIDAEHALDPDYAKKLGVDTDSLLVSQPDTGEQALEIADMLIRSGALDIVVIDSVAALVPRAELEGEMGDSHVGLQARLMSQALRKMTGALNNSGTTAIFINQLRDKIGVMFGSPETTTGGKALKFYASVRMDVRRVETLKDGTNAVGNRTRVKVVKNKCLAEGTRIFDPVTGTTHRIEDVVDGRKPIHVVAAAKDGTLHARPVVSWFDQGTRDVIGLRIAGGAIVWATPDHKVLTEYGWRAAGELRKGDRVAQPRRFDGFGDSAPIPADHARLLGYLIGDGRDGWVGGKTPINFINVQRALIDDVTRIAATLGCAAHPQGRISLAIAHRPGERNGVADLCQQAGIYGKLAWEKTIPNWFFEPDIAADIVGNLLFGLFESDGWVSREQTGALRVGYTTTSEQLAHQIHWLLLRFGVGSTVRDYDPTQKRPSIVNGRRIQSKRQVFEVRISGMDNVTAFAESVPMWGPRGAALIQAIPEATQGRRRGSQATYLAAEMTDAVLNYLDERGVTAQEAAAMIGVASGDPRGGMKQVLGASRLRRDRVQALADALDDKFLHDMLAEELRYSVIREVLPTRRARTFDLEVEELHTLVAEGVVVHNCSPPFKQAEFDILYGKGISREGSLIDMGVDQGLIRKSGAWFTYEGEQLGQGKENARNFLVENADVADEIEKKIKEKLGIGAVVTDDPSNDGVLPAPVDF

Protein Wnt-3a = Protein Wnt-3a (Mus musculus, UniProt P27467); assay: Wnt3a-driven reporter signaling inhibition, dose response, selectivity assay for Gli-SUFU antagonist project, Wnt-LIGHT cells, luminescence (AID 651570); type: functional; conditions: read-out: IC50_Mean;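 also: Wnt-LIGHT reporter cells stimulated with conditioned medium from Wnt3a-producing cells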
Chain of Protein Wnt-3a (P27467 whole entry): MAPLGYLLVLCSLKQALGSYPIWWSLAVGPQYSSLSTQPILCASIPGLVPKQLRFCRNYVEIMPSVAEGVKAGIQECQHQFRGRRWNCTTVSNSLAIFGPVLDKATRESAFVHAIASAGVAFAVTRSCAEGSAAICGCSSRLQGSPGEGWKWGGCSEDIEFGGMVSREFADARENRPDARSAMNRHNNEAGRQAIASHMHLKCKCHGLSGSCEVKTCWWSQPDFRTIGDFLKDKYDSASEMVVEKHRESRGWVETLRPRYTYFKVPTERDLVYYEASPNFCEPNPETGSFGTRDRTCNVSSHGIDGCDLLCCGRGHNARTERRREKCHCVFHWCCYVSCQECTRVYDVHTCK

[8] = biological target: T2, Replicative DNA helicase DnaB (Mycobacterium tuberculosis, UniProt P9WMR3); assay: DnaB intein splicing inhibitors, dose response, biochemical, cell-free fluorescence (AID 449749); type: functional
T2 sequence (P9WMR3 whole entry): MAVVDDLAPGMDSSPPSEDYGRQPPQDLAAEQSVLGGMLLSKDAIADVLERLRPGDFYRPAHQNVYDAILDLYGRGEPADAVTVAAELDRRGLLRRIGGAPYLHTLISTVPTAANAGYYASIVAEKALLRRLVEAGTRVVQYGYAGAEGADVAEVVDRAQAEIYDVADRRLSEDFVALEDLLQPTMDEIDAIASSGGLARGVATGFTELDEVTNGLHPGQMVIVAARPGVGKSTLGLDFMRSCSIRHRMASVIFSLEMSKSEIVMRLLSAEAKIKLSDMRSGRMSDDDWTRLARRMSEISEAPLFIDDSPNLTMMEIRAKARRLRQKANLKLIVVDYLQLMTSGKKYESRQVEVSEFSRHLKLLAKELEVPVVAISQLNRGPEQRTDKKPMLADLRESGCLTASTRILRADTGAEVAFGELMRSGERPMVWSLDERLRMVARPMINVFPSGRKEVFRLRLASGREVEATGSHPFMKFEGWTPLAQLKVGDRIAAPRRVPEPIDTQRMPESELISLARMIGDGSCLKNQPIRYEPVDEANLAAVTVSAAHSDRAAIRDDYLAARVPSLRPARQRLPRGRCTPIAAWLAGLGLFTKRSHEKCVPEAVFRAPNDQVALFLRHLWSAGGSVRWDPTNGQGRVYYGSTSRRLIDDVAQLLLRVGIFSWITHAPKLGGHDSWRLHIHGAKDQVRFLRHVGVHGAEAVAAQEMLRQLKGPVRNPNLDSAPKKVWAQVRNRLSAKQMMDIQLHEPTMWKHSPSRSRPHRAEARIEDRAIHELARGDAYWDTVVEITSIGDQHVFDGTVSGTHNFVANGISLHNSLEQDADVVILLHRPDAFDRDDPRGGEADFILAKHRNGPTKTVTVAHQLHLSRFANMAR

[9] = A Cell Based Secondary Assay To Explore Cytotoxicity of Compounds that Sensitize Mycobacterium Tuberculosis to Beta-Lactam Antibiotics.; type: functional
[10] = biological target: Voltage-dependent T-type calcium channel subunit alpha-1H (Homo sapiens, UniProt O95180); type: functional;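 also: channel activity triggered by adding a high calcium stimulation buffer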
Chain of Voltage-dependent T-type calcium channel subunit alpha-1H (O95180 whole entry): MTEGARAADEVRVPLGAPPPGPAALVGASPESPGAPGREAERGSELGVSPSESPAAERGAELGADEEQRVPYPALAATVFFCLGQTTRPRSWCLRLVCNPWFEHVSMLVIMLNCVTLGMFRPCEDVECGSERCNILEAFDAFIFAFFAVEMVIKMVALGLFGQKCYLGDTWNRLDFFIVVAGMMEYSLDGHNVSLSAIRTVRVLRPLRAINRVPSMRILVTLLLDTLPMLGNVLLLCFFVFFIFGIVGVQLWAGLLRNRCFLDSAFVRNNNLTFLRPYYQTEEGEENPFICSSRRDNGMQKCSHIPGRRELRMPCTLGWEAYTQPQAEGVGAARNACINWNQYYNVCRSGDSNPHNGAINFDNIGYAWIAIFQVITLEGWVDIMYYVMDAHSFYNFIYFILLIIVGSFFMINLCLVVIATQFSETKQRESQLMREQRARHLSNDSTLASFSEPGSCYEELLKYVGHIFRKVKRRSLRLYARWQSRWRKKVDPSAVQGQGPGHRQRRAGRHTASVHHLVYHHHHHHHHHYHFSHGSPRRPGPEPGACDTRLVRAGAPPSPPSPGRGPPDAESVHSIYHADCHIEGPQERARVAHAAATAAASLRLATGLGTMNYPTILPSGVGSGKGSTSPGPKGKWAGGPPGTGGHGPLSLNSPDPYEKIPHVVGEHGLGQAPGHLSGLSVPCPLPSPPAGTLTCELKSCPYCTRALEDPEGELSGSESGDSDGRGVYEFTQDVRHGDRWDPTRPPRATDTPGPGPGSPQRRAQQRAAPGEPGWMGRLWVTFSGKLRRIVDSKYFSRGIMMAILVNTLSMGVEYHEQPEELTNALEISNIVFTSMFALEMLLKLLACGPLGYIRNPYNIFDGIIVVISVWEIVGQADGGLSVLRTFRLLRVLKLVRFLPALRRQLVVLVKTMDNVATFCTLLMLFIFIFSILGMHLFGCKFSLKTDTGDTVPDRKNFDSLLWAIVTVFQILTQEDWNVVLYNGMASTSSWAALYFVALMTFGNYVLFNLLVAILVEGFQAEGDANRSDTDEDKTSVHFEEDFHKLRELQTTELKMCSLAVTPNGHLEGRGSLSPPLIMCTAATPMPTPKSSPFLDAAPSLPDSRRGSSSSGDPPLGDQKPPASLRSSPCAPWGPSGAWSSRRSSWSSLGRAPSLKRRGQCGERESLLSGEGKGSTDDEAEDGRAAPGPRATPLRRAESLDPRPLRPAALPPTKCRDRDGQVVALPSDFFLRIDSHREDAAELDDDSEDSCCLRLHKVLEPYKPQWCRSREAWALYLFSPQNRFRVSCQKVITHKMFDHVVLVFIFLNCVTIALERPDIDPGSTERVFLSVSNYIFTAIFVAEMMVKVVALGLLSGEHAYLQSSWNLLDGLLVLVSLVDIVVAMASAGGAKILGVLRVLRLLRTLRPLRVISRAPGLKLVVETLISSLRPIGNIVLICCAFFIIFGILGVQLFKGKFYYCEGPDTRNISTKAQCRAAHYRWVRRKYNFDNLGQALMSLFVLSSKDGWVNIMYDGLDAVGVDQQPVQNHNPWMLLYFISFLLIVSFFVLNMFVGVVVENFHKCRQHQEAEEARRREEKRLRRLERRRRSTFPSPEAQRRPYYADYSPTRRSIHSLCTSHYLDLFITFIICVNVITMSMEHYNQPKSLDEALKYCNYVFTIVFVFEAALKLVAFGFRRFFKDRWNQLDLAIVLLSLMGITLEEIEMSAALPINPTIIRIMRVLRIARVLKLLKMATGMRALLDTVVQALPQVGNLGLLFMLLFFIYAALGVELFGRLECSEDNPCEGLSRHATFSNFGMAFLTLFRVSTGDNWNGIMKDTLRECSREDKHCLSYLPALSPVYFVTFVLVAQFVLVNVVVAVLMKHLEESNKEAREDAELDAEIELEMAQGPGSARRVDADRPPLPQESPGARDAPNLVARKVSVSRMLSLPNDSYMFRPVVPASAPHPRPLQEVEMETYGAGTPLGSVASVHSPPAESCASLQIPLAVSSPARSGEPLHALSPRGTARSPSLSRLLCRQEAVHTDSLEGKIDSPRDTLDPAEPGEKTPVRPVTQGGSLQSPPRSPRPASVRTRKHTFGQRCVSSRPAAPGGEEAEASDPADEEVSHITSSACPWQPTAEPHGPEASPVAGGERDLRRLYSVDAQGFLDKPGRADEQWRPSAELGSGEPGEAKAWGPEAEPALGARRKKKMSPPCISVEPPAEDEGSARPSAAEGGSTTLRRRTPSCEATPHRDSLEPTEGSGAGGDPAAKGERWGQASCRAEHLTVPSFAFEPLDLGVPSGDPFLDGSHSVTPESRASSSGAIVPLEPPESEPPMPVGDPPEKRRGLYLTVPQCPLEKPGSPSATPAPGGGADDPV

[11] = biological target: Intestinal-type alkaline phosphatase (Homo sapiens, UniProt P09923); assay: Dose Response confirmation of uHTS hits from a small molecule inhibitors of human intestinal alkaline phosphatase via a luminescent assay. [Related pubchem assays (depositor defined):AID2544, AID2574]; type: functional
Chain of Intestinal-type alkaline phosphatase (P09923 whole entry): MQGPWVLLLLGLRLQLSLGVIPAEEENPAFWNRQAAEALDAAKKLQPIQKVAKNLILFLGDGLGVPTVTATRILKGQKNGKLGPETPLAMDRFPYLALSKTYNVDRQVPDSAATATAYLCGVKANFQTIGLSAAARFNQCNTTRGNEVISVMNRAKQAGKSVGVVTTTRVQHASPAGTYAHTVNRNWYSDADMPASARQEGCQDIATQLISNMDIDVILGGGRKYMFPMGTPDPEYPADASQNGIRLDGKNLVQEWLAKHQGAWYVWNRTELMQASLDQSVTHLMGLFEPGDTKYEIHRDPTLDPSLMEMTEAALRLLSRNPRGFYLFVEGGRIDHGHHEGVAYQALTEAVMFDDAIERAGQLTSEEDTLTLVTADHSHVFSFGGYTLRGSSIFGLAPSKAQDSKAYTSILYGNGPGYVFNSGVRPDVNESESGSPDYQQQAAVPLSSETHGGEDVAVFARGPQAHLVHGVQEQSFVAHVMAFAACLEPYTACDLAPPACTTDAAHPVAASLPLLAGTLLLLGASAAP

[12] = biological target: T3, Alkaline phosphatase, tissue-nonspecific isozyme (Homo sapiens, UniProt P05186); assay: human TNAP enzyme inhibitors, SAR follow-up, biochemical, luminescent, dose response (AID 1056)
T3 sequence (P05186 whole entry): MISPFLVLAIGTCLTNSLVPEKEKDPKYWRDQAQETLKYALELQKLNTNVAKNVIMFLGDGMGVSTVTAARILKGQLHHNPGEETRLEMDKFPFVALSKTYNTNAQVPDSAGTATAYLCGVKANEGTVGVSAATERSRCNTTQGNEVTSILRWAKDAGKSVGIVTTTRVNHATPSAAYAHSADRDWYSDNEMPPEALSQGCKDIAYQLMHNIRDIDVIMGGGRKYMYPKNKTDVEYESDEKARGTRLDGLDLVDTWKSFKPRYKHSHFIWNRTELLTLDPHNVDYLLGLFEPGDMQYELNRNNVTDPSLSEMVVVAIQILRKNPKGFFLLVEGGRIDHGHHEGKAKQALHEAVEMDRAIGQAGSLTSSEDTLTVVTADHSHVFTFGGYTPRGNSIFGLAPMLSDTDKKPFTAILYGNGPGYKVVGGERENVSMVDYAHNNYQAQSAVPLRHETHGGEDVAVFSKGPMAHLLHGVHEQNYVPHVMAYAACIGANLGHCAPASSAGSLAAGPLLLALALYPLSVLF

[13] = biological target: Glyceraldehyde-3-phosphate dehydrogenase (Homo sapiens, UniProt P04406)
Chain of Glyceraldehyde-3-phosphate dehydrogenase (P04406 whole entry): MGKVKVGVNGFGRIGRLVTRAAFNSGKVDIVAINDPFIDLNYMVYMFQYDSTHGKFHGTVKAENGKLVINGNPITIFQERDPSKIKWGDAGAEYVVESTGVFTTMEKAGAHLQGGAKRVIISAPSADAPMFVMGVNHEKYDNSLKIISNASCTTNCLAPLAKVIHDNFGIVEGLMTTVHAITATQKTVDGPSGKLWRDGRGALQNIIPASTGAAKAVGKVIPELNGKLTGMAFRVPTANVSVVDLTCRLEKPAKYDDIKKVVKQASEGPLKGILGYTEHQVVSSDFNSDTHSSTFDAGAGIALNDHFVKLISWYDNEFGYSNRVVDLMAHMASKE

Cytochrome P450 3A4 = Cytochrome P450 3A4 (Homo sapiens, UniProt P08684);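 also: CYP3A4 tested as one member of a cytochrome P450 panel screen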
[14] = biological target: DNA dC->dU-editing enzyme APOBEC-3G (Homo sapiens, UniProt Q9HC16); assay: Dose Response confirmation of small molecule APOBEC3G DNA Deaminase Inhibitors via a fluorescence-based single-stranded DNA deaminase assay. [Related pubchem assays (depositor defined):AID493012, AID493028]; type: functional
Chain of DNA dC->dU-editing enzyme APOBEC-3G (Q9HC16 whole entry): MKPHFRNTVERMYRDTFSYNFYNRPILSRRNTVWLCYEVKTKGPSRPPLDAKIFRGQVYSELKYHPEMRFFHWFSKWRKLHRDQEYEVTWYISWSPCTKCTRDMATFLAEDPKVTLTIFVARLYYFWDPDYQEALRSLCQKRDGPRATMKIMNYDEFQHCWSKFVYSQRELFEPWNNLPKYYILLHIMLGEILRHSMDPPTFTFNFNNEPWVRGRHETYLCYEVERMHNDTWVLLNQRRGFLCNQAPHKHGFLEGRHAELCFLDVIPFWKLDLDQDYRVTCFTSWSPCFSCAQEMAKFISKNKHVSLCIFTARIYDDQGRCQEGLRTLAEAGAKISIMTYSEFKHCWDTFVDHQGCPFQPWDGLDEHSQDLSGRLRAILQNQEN

Large T antigen = Large T antigen (Simian virus 40, UniProt P03070); type: functional, Betapolyomavirus macacae;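 also: Confirmatory-stage PubChem screen for compounds that inhibit SV40 T antigen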
Chain of Large T antigen (P03070 whole entry): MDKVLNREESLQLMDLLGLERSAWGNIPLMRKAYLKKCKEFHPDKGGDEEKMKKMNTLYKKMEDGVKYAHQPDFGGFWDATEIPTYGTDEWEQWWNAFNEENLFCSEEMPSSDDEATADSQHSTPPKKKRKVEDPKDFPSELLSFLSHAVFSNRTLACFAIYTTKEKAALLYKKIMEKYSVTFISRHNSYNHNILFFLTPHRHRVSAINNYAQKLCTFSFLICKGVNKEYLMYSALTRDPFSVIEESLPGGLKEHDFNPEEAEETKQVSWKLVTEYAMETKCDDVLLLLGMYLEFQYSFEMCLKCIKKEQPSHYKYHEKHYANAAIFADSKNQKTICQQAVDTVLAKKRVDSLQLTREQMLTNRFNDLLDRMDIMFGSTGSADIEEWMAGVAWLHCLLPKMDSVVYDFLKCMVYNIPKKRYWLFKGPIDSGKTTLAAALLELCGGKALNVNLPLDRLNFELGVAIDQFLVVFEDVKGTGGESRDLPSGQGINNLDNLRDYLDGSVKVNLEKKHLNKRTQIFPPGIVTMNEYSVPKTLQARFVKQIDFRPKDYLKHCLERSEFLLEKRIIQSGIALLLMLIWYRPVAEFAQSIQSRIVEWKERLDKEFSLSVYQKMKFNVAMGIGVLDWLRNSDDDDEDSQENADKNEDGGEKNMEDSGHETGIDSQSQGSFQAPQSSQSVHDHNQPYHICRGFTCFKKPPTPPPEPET

[15] = biological target: DNA dC->dU-editing enzyme APOBEC-3A (Homo sapiens, UniProt P31941); assay: APOBEC3A DNA deaminase inhibitors, dose response, biochemical (AID 504722); type: functional
Chain of DNA dC->dU-editing enzyme APOBEC-3A (P31941 whole entry): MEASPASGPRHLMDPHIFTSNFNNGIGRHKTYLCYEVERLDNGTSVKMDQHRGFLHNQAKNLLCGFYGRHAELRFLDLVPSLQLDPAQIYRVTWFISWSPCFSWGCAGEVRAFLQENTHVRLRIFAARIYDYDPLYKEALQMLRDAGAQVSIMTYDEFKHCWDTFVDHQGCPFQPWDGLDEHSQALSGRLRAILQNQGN

[16] = biological target: T4, Dual specificity protein phosphatase 6 (Rattus norvegicus, UniProt Q64346)
T4 sequence (Q64346 whole entry): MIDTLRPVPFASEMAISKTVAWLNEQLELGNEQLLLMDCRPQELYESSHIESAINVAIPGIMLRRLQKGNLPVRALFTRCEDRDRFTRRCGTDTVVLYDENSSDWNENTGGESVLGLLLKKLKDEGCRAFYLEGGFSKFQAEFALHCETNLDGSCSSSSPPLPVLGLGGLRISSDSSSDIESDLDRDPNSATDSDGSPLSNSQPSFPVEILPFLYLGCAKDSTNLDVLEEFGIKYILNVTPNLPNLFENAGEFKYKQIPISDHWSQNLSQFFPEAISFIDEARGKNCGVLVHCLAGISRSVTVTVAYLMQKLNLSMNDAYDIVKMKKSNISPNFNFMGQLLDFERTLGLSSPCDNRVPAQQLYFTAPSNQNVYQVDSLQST

[17] = biological target: T4, Dual specificity protein phosphatase 6; type: functional

## COc1ccc(C(C(=O)NC2CCCCC2)N(C(=O)CCl)c2ccc(Cl)cc2)cc1 (configuration not stated)
[1]
  IC50: > 80 µM (inactive)
BJ [2]
  EC50: 0.152 µM (active)
[3]
  EC50: 1.23 µM (active)
[4]
  EC50: 0.166 µM (active)
[5]
  EC50: 0.681 µM (active)
BJ [6]
  EC50: 4.11 µM (inconclusive)
BJ [7]
  EC50: 2.51 µM (active)
Protein RecA
  EC50: 0.236 µM (active)
Protein Wnt-3a
  IC50: 3.16 µM (active)
[8]
  AC50: 0.774 µM (active)

## O=C(c1cnn2c(C(F)(F)F)cc(-c3cccs3)nc12)N1CCN(C(c2ccccc2)c2ccccc2)CC1
[9]
  CC50: > 40 µM (active)
[10]
  EC50: 6.75 µM (active)

## COC(=O)c1cc(C#N)c(Oc2ccccc2OC)nc1C
[11]
  IC50: > 100 µM (inactive)

## COc1cc(Cl)ccc1OCc1cc(C(=O)N2CCCCCCC2)no1
[11]
  IC50: > 100 µM (inactive)

## CCCCc1ccc(S(=O)(=O)Nc2cnc3ccccc3c2)cc1
[12]
  IC50: > 100 µM (inactive)
[13]
  IC50: > 100 µM (not active)

## CCOc1ccc(NC(=O)CSc2nncn2C)cc1
[11]
  IC50: > 100 µM (inactive)

## O=C(Cc1ncc(C(F)(F)F)cc1Cl)Nc1cccc(Br)c1
Cytochrome P450 3A4
  AC50: 14.1 µM (inconclusive)
[10]
  EC50: 4.24 µM (active)

## CCSS(=O)(=O)c1cccc2cccnc12
[14]
  IC50: 12.7 µM (active)
Large T antigen
  IC50: > 100 µM (active)
[15]
  IC50: > 100 µM (inactive)

## COC(=O)CSc1nnc(S)s1
[14]
  IC50: 17 µM (active)
[15]
  IC50: > 100 µM (inactive)

## O=S(=O)(O)c1ccc2cc(/N=N/c3cc(S(=O)(=O)O)c4cccnc4c3O)ccc2c1
[16]
  IC50: 5.1 µM (active)
[13]
  IC50: > 100 µM (not active)
[17]
  IC50: 4.19 µM (active)
